Experiment [1] has as its target human Cereblon WT GST-tagged protein (Homo sapiens (Human), UniProt Q96SW2). As to the kind of experiment: CRBN-binding affinity, HTRF (CEREBLON BINDING kit, CISBIO). The following applies: HTRF inhibitory activity. An outline of the steps:
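HTRF competition format: test compound displaces Thalidomide-Red from GST-tagged human Cereblon WT, detected with a Eu-labelled anti-GST antibody. Percent CRBN binding inhibition was derived from the 620 nm signal, normalized to solvent-control and protein-free blank wells.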

The next experiment has as its target IKZF3 (Homo sapiens (Human), UniProt Q96SW2+Q9UKT9). As to the kind of experiment: Western blot, substrate protein expression in hPBMC: IKZF3. The following applies: hPBMC, compound 500 nM, 24 hours, Western blot. It counts as cell-based. An outline of the steps:
(§1)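 hPBMC, 1×10^6 cells/mL, 24 h compound exposure; RIPA lysis, BCA protein assay, SDS-PAGE, NC membrane immunoblot. Densitometry vs internal control → % protein remaining; degradation % = 100% − remaining; DC50 = conc. at 50% of DMSO band signal.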
In general terms: A western blot detects proteins with antibodies after separation by electrophoresis.

Another experiment deals with GSPT1 (Homo sapiens (Human), UniProt P15170+Q96SW2). In words: Western blot, substrate protein expression in hPBMC: GSPT1. It counts as cell-based. The following applies: hPBMC, compound 500 nM, 24 hours, Western blot. A digest of the protocol:
as §1

In experiment [2] the test system is MM.1S cells (human multiple myeloma cells). As to the kind of experiment: Tumor cell proliferation inhibition, CCK-8. It counts as cell-based. Conditions: MM1.S, MM.1S cells, CCK-8, read-out: inhibitory activity (IC50, nM) MM.1S. The procedure: (§2) The tumor cells used herein were cultured in a cell culture medium listed in table 2 at 37° C. in an incubator with 5% CO2. Prior to experimentation, all cells used were correctly identified by STR profiling, and tested negative for mycoplasma through routine screenings.
(§3) IC50 values of the compounds of the present disclosure (including the compounds in Table 1 and the Examples 1-305 compounds) were measured using the Meilun Cell Counting Kit-8 kit from Dalian Meilun Biotech Co., Ltd. Assay details are as follows: tumor cells were seeded in a 96-well plate at a density listed in Table 5. After 24 h, 100 μL of the inoculated cells were treated with 0.5 μL of the compounds of the present disclosure (including the compounds in Table 1 and the Examples 1-305 compounds) at 10 different successively decreasing concentrations (starting at the highest concentration of 10 μM; 5-fold serial dilutions). After the cells were treated with the compounds of the present disclosure for a period of time, the cell viability detection reagent was added to the culture medium for cell viability assessment according to the instructions provided with the CCK-8 kit. […] The growth inhibition of the compounds of the present disclosure on cells was plotted by Prism Graphpad software, and the IC50 values of the compounds of the present disclosure were calculated therefrom.

The next experiment deals with IKZF1 (Homo sapiens (Human), UniProt Q13422+Q96SW2). As to the kind of experiment: Western blot, substrate protein expression in hPBMC: IKZF1. It counts as cell-based. Conditions: hPBMC, compound 500 nM, 24 hours, Western blot. A digest of the protocol: as §1
In experiment [3] the test system is MDA-MB-231 cells (human breast adenocarcinoma cells). As to the kind of experiment: Tumor cell proliferation inhibition, CCK-8. It counts as cell-based. Conditions: MDA-MB-231 cells, CCK-8, read-out: inhibitory activity (IC50, nM) MDA-MB-231. The procedure: as §2, §3
In experiment [4] the test system is H146 cells (human small cell lung carcinoma cells). In words: Tumor cell proliferation inhibition, CCK-8. It counts as cell-based. The following applies: NCI-H146, H146 cells, CCK-8, read-out: inhibitory activity (IC50, nM) H146. The procedure: as §2, §3
For experiment [5], the system named is TMD8 cells (human diffuse large B-cell lymphoma cells). As to the kind of experiment: Tumor cell proliferation inhibition, CCK-8. It counts as cell-based. The following applies: TMD8 cells, CCK-8, read-out: inhibitory activity (IC50, nM) TMD8. The procedure:
as §2, §3

Where only a bound is given, the exact number is not on record here.

Sequence of human Cereblon WT GST-tagged protein (Q96SW2 whole entry): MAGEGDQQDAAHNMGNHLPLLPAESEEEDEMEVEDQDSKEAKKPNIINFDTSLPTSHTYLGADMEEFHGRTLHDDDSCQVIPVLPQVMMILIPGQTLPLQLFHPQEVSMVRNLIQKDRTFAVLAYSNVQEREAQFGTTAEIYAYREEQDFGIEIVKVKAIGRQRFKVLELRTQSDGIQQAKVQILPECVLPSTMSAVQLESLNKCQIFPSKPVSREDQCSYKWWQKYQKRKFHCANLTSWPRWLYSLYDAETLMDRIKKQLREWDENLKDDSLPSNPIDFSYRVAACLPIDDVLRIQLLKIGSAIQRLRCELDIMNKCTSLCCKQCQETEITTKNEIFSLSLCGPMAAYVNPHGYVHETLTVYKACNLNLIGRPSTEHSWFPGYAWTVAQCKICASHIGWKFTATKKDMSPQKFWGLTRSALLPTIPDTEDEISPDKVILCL
Sequence of IKZF3 (Q9UKT9 whole entry): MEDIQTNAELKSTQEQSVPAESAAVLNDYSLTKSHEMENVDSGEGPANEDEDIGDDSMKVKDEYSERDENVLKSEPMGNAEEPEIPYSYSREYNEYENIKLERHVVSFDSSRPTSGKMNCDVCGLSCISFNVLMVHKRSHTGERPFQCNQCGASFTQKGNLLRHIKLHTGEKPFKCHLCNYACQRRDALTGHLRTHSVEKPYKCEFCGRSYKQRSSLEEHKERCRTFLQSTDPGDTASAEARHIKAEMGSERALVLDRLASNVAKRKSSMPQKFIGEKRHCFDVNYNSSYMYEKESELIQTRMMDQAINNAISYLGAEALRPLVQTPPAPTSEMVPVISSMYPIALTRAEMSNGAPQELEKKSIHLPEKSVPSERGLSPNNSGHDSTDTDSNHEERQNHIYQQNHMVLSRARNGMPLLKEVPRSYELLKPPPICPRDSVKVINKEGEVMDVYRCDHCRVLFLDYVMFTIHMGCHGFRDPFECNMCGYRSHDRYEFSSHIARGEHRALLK
Sequence of IKZF3 (Q96SW2 whole entry): as the sequence (Q96SW2 whole entry) above
Sequence of IKZF3 (Q16531 whole entry partner): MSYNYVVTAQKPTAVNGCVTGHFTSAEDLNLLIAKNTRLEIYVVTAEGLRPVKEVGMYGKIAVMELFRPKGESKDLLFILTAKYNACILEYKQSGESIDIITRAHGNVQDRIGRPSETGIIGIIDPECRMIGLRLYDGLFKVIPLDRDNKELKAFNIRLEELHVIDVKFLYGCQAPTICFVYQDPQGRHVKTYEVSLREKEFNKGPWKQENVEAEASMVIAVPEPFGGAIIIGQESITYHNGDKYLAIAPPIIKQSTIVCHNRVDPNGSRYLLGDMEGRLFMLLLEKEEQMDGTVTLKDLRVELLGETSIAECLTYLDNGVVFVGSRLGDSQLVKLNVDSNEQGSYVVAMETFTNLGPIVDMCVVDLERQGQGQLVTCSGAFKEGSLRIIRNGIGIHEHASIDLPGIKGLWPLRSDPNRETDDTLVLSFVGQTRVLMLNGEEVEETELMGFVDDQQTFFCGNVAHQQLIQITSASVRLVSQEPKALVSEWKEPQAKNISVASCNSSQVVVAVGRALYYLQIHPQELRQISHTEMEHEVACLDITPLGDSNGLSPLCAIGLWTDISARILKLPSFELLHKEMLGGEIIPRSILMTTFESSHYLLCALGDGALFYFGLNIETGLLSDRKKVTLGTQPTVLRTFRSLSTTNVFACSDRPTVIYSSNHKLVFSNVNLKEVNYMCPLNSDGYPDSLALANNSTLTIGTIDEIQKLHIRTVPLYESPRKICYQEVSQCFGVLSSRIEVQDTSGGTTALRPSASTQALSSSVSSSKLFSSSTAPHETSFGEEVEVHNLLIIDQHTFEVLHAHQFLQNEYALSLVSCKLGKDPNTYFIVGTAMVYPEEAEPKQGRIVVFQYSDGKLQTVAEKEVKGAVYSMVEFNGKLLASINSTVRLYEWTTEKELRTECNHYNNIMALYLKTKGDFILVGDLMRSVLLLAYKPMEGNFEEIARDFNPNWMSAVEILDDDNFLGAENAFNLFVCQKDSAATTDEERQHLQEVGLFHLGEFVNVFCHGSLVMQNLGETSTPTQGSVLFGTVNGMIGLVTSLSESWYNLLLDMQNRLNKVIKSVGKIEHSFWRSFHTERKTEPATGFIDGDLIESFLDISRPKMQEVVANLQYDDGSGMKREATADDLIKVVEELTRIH
Sequence of GSPT1 (P15170 whole entry): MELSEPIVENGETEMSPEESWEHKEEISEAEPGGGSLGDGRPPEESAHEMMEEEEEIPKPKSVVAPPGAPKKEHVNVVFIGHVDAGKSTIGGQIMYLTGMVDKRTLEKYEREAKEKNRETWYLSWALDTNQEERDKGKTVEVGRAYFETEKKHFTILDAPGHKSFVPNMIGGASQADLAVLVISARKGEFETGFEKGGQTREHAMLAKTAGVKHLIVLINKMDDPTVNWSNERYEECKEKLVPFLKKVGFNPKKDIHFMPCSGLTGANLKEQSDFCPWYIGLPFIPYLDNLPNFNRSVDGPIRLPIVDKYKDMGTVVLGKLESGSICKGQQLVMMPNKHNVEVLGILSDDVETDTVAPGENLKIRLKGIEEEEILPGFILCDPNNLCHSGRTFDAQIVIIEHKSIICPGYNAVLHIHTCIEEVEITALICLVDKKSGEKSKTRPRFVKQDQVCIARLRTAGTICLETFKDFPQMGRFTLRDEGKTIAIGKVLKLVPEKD
Sequence of GSPT1 (Q96SW2 whole entry): as the sequence (Q96SW2 whole entry) above
Sequence of GSPT1 (Q16531 whole entry partner): as the sequence (Q16531 whole entry partner) above
Sequence of IKZF1 (Q13422 whole entry): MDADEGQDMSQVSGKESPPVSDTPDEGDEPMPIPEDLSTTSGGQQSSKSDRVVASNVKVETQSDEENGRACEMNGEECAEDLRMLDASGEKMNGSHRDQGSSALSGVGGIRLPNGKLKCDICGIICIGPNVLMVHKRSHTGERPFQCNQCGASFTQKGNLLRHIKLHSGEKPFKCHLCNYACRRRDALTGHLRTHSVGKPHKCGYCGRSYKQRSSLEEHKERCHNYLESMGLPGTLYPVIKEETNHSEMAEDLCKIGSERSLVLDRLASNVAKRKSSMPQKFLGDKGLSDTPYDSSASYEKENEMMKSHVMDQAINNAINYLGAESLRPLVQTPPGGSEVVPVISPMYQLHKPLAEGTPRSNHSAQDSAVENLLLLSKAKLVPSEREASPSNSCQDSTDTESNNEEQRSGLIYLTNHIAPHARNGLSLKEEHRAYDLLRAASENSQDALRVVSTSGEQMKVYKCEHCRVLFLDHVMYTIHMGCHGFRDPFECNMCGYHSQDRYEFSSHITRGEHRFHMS
Sequence of IKZF1 (Q96SW2 whole entry): as the sequence (Q96SW2 whole entry) above
Sequence of IKZF1 (Q16531 whole entry partner): as the sequence (Q16531 whole entry partner) above

As usually defined, the IC50 is the concentration that gives 50% inhibition. In the case of `O=C1CCC(N2Cc3cc(CCN4CCN(C(c5ccccc5)c5ccccc5)CC4)ccc3C2=O)C(=O)N1` (stereo not shown) [GT-05696, 3-(5-(2-(4-benzhydrylpiperazin-1-yl)ethyl)-1-oxoisoindolin-2-yl)piperidine-2,6-dione], the IC50 in experiment [1] was below 500 nM; in experiment [2] it was 50 to 100 nM. Moreover, the “substrate protein remaining % IKZF3” value at IKZF3 is “A (A represents 0% ≤ substrate protein remaining % ≤ 50%)”. Also, the “substrate protein remaining % GSPT1” value at GSPT1 is on record as “A (A represents 0% ≤ substrate protein remaining % ≤ 50%)”. In addition, the “substrate protein remaining % IKZF1” value at IKZF1 is “A (A represents 0% ≤ substrate protein remaining % ≤ 50%)”.

Take `O=C1CCC(N2C(=O)c3ccc(CN4CCC(N(c5ccccc5)c5ccccc5)CC4)cc3C2=O)C(=O)N1` (stereo not shown) [GT-05741, 2-(2,6-dioxopiperidin-3-yl)-5-((4-(diphenylamino)piperidin-1-yl)methyl) isoindoline-1,3-dione]: the “substrate protein remaining % IKZF3” value at IKZF3 is listed as “A (A represents 0% ≤ substrate protein remaining % ≤ 50%)”. The “substrate protein remaining % GSPT1” value on GSPT1 is “A (A represents 0% ≤ substrate protein remaining % ≤ 50%)”. In addition, the IC50 in experiment [3] is 100 to 500 nM; in experiment [4], 50 to 100 nM; in experiment [2] it was 10 to 50 nM. Moreover, at IKZF1, the “substrate protein remaining % IKZF1” value is recorded as “A (A represents 0% ≤ substrate protein remaining % ≤ 50%)”.

`O=C1CCC(N2Cc3cc(CN4CC5CN(C(c6ccccc6)c6ccccc6)CC5C4)c(F)cc3C2=O)C(=O)N1` (stereo not shown) [GT-06051, 3-(5-((5-benzhydrylhexahydropyrrolo[3,4-c]pyrrol-2 (1H)-yl)methyl)-6-fluoro-1-oxoisoindolin-2-yl)piperidine-2,6-dione]: the IC50 in experiment [1] was 500 to 1000 nM; in experiment [4], 100 to 500 nM; in experiment [2], 50 to 100 nM. In addition, the “substrate protein remaining % IKZF3” value at IKZF3 was “B (B represents substrate protein remaining % > 50%)”. In addition, the “substrate protein remaining % GSPT1” value at GSPT1 is reported as “A (A represents 0% ≤ substrate protein remaining % ≤ 50%)”. The “substrate protein remaining % IKZF1” value on IKZF1 is “B (B represents substrate protein remaining % > 50%)”.

For the molecule `O=C1CCC(N2Cc3cc(C(=O)N4CCN(C(c5ccccc5F)c5ccccc5F)CC4)ccc3C2=O)C(=O)N1` (stereo not shown) [GT-06104, 3-(5-(4-(bis(2-fluorophenyl)methyl)piperazine-1-carbonyl)-1-oxoisoindolin-2-yl)piperidine-2,6-dione], the IC50 was below 500 nM in experiment [1], 500 to 1000 nM in experiment [3], 100 to 500 nM in experiment [4] and 10 to 50 nM in experiment [2]. Besides, at IKZF3, the “substrate protein remaining % IKZF3” value is on record as “B (B represents substrate protein remaining % > 50%)”. Besides, the “substrate protein remaining % GSPT1” value on GSPT1 is listed as “A (A represents 0% ≤ substrate protein remaining % ≤ 50%)”. Also, on IKZF1, the “substrate protein remaining % IKZF1” value is on record as “A (A represents 0% ≤ substrate protein remaining % ≤ 50%)”.

With `O=C1CCC(N2C(=O)c3ccc(CN4CCN(C(c5cccc(F)c5)c5cccc(F)c5)CC4)cc3C2=O)C(=O)N1` (stereo not shown) [GT-06118, 5-((4-(bis(3-fluorophenyl)methyl)piperazin-1-yl)methyl)-2-(2,6-dioxopiperidin-3-yl) isoindoline-1,3-dione], the “substrate protein remaining % IKZF3” value on IKZF3 was “A (A represents 0% ≤ substrate protein remaining % ≤ 50%)”. Moreover, the “substrate protein remaining % GSPT1” value on GSPT1 was “A (A represents 0% ≤ substrate protein remaining % ≤ 50%)”. Besides, the IC50 was 100 to 500 nM in experiment [4], 500 to 1000 nM in experiment [5] and 50 to 100 nM in experiment [2]. On IKZF1, the “substrate protein remaining % IKZF1” value is given as “A (A represents 0% ≤ substrate protein remaining % ≤ 50%)”.

In the case of `O=C1CCC(N2Cc3cc(CN4CCC(N(c5ccccc5)c5ccccc5)CC4)cc(F)c3C2=O)C(=O)N1` (stereo not shown) [GT-06133, 3-(5-((4-(diphenylamino)piperidin-1-yl)methyl)-7-fluoro-1-oxoisoindolin-2-yl)piperidine-2,6-dione], the IC50 in experiment [1] was below 500 nM; in experiment [3], 500 to 1000 nM; in experiment [4], 100 to 500 nM; in experiment [2], 10 to 50 nM. For the same molecule, at IKZF3, the “substrate protein remaining % IKZF3” value was “B (B represents substrate protein remaining % > 50%)”. The “substrate protein remaining % GSPT1” value at GSPT1 is reported as “A (A represents 0% ≤ substrate protein remaining % ≤ 50%)”. Besides, on IKZF1, the “substrate protein remaining % IKZF1” value is “B (B represents substrate protein remaining % > 50%)”.

With `O=C1CCC(N2Cc3cc(C(=O)N4CCN(C(c5ccccc5)c5cccnc5)CC4)ccc3C2=O)C(=O)N1` (stereo not shown) [GT-06142, 3-(1-oxo-5-(4-(phenyl(pyridin-3-yl)methyl)piperazine-1-carbonyl)isoindolin-2-yl)piperidine-2,6-dione], the IC50 in experiment [1] was 500 to 1000 nM. For the same molecule, the “substrate protein remaining % IKZF3” value at IKZF3 is given as “B (B represents substrate protein remaining % > 50%)”. Besides, the “substrate protein remaining % GSPT1” value at GSPT1 was “A (A represents 0% ≤ substrate protein remaining % ≤ 50%)”. Further, the “substrate protein remaining % IKZF1” value at IKZF1 is on record as “B (B represents substrate protein remaining % > 50%)”.

Turning to `O=C1CCC(N2Cc3cc(C(=O)N4CCN(C(c5cccc(F)c5)c5cccc(F)c5)CC4)cc(F)c3C2=O)C(=O)N1` (stereo not shown) [GT-06147, 3-(5-(4-(bis(3-fluorophenyl)methyl)piperazine-1-carbonyl)-7-fluoro-1-oxoisoindolin-2-yl)piperidine-2,6-dione], the IC50 in experiment [1] is below 500 nM. Moreover, the “substrate protein remaining % IKZF3” value on IKZF3 is recorded as “B (B represents substrate protein remaining % > 50%)”. Moreover, on GSPT1, the “substrate protein remaining % GSPT1” value is listed as “A (A represents 0% ≤ substrate protein remaining % ≤ 50%)”. For the same molecule, the “substrate protein remaining % IKZF1” value at IKZF1 is reported as “B (B represents substrate protein remaining % > 50%)”.

In turn, `O=C1CCC(N2Cc3c(C(=O)N4CCN(C(c5cccc(F)c5)c5cccc(F)c5)CC4)cccc3C2=O)C(=O)N1` (stereo not shown) [GT-06148, 3-(4-(4-(bis(3-fluorophenyl)methyl)piperazine-1-carbonyl)-1-oxoisoindolin-2-yl)piperidine-2,6-dione] yielded an IC50 in experiment [1] below 500 nM. Also, on IKZF3, the “substrate protein remaining % IKZF3” value is on record as “B (B represents substrate protein remaining % > 50%)”. The “substrate protein remaining % GSPT1” value at GSPT1 is listed as “A (A represents 0% ≤ substrate protein remaining % ≤ 50%)”. The “substrate protein remaining % IKZF1” value at IKZF1 was “B (B represents substrate protein remaining % > 50%)”.

Take `O=C1CCC(N2Cc3cc(CN4CCN(C(c5ccc(C(F)(F)F)cc5)c5ccc(C(F)(F)F)cc5)CC4)ccc3C2=O)C(=O)N1` (stereo not shown) [GT-06199, 3-(5-((4-(bis(4-(trifluoromethyl)phenyl)methyl)piperazin-1-yl)methyl)-1-oxoisoindolin-2-yl)piperidine-2,6-dione]: the “substrate protein remaining % IKZF3” value at IKZF3 was “A (A represents 0% ≤ substrate protein remaining % ≤ 50%)”. Besides, on GSPT1, the “substrate protein remaining % GSPT1” value was “A (A represents 0% ≤ substrate protein remaining % ≤ 50%)”. The IC50 in experiment [2] was 10 to 50 nM. Moreover, the “substrate protein remaining % IKZF1” value at IKZF1 is “A (A represents 0% ≤ substrate protein remaining % ≤ 50%)”.

Molecule `O=C1CCC(N2C(=O)c3ccc(C(=O)N4CCN(C(c5cccc(F)c5)c5cccc(F)c5)CC4)cc3C2=O)C(=O)N1` (stereo not shown) [GT-06206, 5-(4-(bis(3-fluorophenyl)methyl)piperazine-1-carbonyl)-2-(2,6-dioxopiperidin-3-yl) isoindoline-1,3-dione] yielded an IC50 in experiment [1] of 1000 to 1900 nM. Besides, at IKZF3, the “substrate protein remaining % IKZF3” value is “B (B represents substrate protein remaining % > 50%)”. In addition, the “substrate protein remaining % GSPT1” value at GSPT1 is given as “A (A represents 0% ≤ substrate protein remaining % ≤ 50%)”. At IKZF1, the “substrate protein remaining % IKZF1” value is “B (B represents substrate protein remaining % > 50%)”.

For `O=C1CCC(N2Cc3cc(CN4CCN(C(c5ccccc5)c5ccc(Br)cc5)CC4)ccc3C2=O)C(=O)N1` (stereo not shown) [GT-06640, 3-(5-((4-((4-bromophenyl) (phenyl)methyl)piperazin-1-yl)methyl)-1-oxoisoindolin-2-yl)piperidine-2,6-dione], the half-maximal inhibitory concentration (IC50) in experiment [1] is 500 to 1000 nM. In addition, on IKZF3, the “substrate protein remaining % IKZF3” value is reported as “A (A represents 0% ≤ substrate protein remaining % ≤ 50%)”. Besides, the “substrate protein remaining % GSPT1” value at GSPT1 is listed as “A (A represents 0% ≤ substrate protein remaining % ≤ 50%)”. In addition, the “substrate protein remaining % IKZF1” value on IKZF1 is “A (A represents 0% ≤ substrate protein remaining % ≤ 50%)”.
